Here are results for 88 compounds from a melting point compilation (Tetko et al.; mined from patent text by program, amines drawn as free bases though some values may be those of a salt).

Residues, ends and D or L forms follow the SMILES beside them. *: point of attachment. Tos = Cc1ccc(S(=O)(=O)*)cc1; NHPh = c1ccc(N*)cc1 Some results are limits rather than exact numbers.

On to `OCc1cc(O)cc2cc(-c3ccc(O)cc3)oc12`, for which the melting point is 258 to 260 °C.

With `COc1ccc(NC(=O)NCC2(c3ccccc3)CCCCC2)cc1`, the melting point is 155 to 157 °C.

As for `CCOC(=O)C1=C(Cc2ccccc2)Nc2n[nH]cc2C1c1ccccc1Cl` (stereo not drawn), the melting point was 247 °C.

For `CCc1nc2c(C)cc(C)nc2n1Cc1ccc(C(=Cc2nnn[nH]2)c2ccccc2Cl)cc1`, the melting point worked out at 28 °C.

Turning to `CCCCCCCCCCCC1CC(O)C(CCCCCC)C(=O)O1` (stereo not drawn), the melting point fell in the range of 98 to 99 °C.

The compound `CN(C)C=C(C=O)c1cccc(C(F)(F)F)c1` returned a melting point of 128 to 132 °C.

Compound `C/C(N)=C/C(=O)OCCOC/C(C)=C/c1ccc(Cc2cccnc2)cc1` had a melting point of 67 to 70 °C.

Take `CCCc1nc(C)n2nc(S)nc2c1Cc1ccc([N+](=O)[O-])cc1`: the melting point was 210 °C.

On to `O=c1c2c(Cc3ccccc3)n[nH]c2c2ccncc2n1-c1ccccc1`, for which the melting point fell in the range of 303 to 307 °C.

As to `Cc1cc2cc(N=[N+]=[N-])ccc2[nH]1`, the melting point fell in the range of 57 to 60 °C.

Compound `Cc1ccc(C(=O)c2cc(CN(C)CCO)c(O)c(C(C)(C)C)c2)cc1` yielded a melting point of 131 to 132 °C.

With `CCOC(=O)Cc1cc(O)ccc1F`, the melting point was 85 to 87 °C.

`O=C1NC(=O)C(S(=O)(=O)c2ccccc2)S1` (stereo not drawn) gave a melting point of 130 to 133 °C.

`COc1cc(Nc2nccc(-c3ccc(N4CCNCC4)nc3)n2)cc(OC)c1OC` displayed a melting point of 103 °C.

In turn, `CN1CCCC(OC(=O)Nc2ccc(Br)cc2)C1` (stereo not drawn) returned a melting point of 127 °C.

Regarding `CCCc1c(OCCCCCOc2coc(CO)cc2=O)ccc(C(C)=O)c1O`, the melting point lay in the range of 94 to 95 °C.

In turn, `O=C1NC(=S)SC1=Cc1ccc2c(c1)N(OCc1ccccc1)C(=O)CO2` had a melting point of more than 300 °C.

On to `C=C(C)C(=O)NC1=CC(O)(C(C)=O)C(C(=O)O)C=C1` (stereo not drawn), for which the melting point turned out to be 178 °C.

The compound `Cc1ccc(S(=O)(=O)N[C@@H](C)C(=O)N2CCC[C@H]2C(=O)Nc2ccccc2)cc1` (Tos-Ala-Pro-NHPh) returned a melting point of 145 to 147 °C.

For the compound `CC(C)(C)N(Cc1ccccc1)C(=O)C=c1sc2n(c1=O)Cc1ccccc1N=2`, the melting point lay within 195 to 197 °C.

`CC(C)(O)c1cccc(-c2ccc3nc(-c4ccc(Cl)cc4)cn3c2)c1Cl` had a melting point of 230 to 231 °C.

Take `CC(C)NCC(O)c1cc(Cl)c(N)c(C(F)(F)F)c1` (stereo not drawn): the melting point was 104 to 106 °C.

The compound `FC(F)(F)c1cc(C(F)(F)F)c(-c2ccc(Cl)cc2)[nH]1` returned a melting point of 41 to 43 °C.

Compound `Cc1ccc(C)c(C(=O)NC(C)(C)C)c1` returned a melting point of 80 to 82 °C.

`O=Cc1cc2cc(Cl)c(Cl)cc2[nH]1`: the melting point was 188 to 190 °C.

Compound `Cc1cc(Nc2ccnc(Nc3ccc(S(=O)(=O)N(CCN4CCCC4)C4CCN(C)CC4)cc3)n2)ccc1F` registered a melting point of 93 to 103 °C.

Consider `Cc1noc(NS(=O)(=O)c2ccc(C(F)(F)F)cc2)c1Br`, for which the melting point lay in the range of 155 to 158 °C.

For the compound `COc1cc2oc(=O)c(CCN3CCN(c4ccccc4OC)CC3)c(C)c2cc1OC`, the melting point lay in the range of 174 to 175 °C.

Compound `FC(F)(F)Oc1cccc(C=Cc2nc(CNc3ccc(CCCCn4ccnn4)cc3)co2)c1` registered a melting point of 91 to 93 °C.

With `Cc1sc(C(N)=O)c2c1-c1nn(C)cc1CC2`, the melting point lay within 276 to 277 °C.

In turn, `Cc1ccc(S(=O)(=O)N2CCC[C@H]2C(=O)N[C@@H](Cc2ccc(OCCN3CCCCCC3)cc2)C(=O)O)cc1` displayed a melting point of 105 to 107 °C.

Turning to `O=S1(=O)c2ccc(Cl)c3cccc(c23)N1CCCN1CCN(c2ccc(F)cc2)CC1`, the melting point amounted to 125 °C.

Regarding `CCCC1CCC(=O)C=C1c1ccc(OCC(=O)O)c(Cl)c1Cl` (stereo not drawn), the melting point was 177 to 178 °C.

As to `CCS(=O)(=O)N(c1cc([N+](=O)[O-])c(F)cc1Br)S(=O)(=O)CC`, the melting point lay within 144 to 146 °C.

Take `Cc1c(C(F)(F)F)n(C)c(=O)n(-c2cc(N)c(C#C[Si](C)(C)C)cc2F)c1=O`: the melting point was 192 to 198 °C.

In the case of `Cn1ncc(/C=C/C(=O)Nc2ccc(Cc3nc4ccccc4[nH]3)cc2)c1-c1ccc(F)cc1`, the melting point was more than 300 °C.

Take `O=C1[C@H]2CCC[C@H]2Nc2ccc(Cl)cc2N1Cc1ccccc1` (relative stereo): the melting point fell in the range of 160 to 163 °C.

On to `O=C(/C=C/c1ccc(F)c(F)c1)N1CCN(C(=O)c2cc(C(F)(F)F)cc(C(F)(F)F)c2)[C@H](Cc2c[nH]c3ccccc23)C1`, for which the melting point was 214 to 217 °C.

`N#Cc1ccccc1N1CCCN(Cc2cc3cc(F)ccc3[nH]2)CC1` yielded a melting point of 194 to 198 °C.

As for `N#Cc1c2c(c3c(c1N1CCCCC1)CCc1ccccc1-3)-c1ccccc1C2`, the melting point lay in the range of 170 to 172 °C.

As for `O=C(Nc1ccc(OCCCN2CCc3ccccc3C2)cc1)c1cccc2c(=O)c3ccccc3[nH]c12`, the melting point was 182 °C.

The compound `Cc1ccc(-c2c(C(=O)NCc3ccccc3)n(CC[C@@H](C)CO)c(=O)c3ncccc23)cc1` showed a melting point of 226 to 227 °C.

With `CCOCCC(=O)NN`, the melting point was 34 °C.

The compound `COc1nc(C)c(C)nc1NC(=S)N1CCN(c2cccc(Br)c2)CC1` yielded a melting point of 136 to 138 °C.

As for `COC(=O)c1sc2ccc(NC=O)cc2c1N`, the melting point was in the range of 202 to 204 °C.

The compound `CCOC(=O)C(Cc1cccc(OC)c1OCc1ccccc1)(NC(C)=O)C(=O)OCC` gave a melting point of 94 to 96 °C.

On to `COC(=O)C1Oc2ccccc2Cc2cccc(Cl)c2O1` (stereo not drawn), for which the melting point was 107 to 108 °C.

For `CSC(=NS(=O)(=O)N1CCCCC1)N1CC(c2ccccc2)C(c2ccc(Cl)cc2)=N1` (stereo not drawn), the melting point was 192 to 194 °C.

The compound `CCOC(=O)c1ccc(C=C(C)c2cc3c(cc2C)C(C)(C)CCC3(C)C)cc1` came in with a melting point of 109 to 110 °C.

The compound `CC(C)(C)OC(=O)N1CCCc2onc(O)c2C1` had a melting point of 170 to 171 °C.

Consider `CCCc1cc2nn(Cc3ccc(NC(=O)c4ccccc4S(=O)(=O)O)cc3)c(=O)n2c(C)n1`, for which the melting point lay in the range of 283 to 286 °C.

`COc1ccc(-c2c(Cl)c(CN3CCCC3=O)nc3sc4c(c23)CCN(Cc2ccccc2)C4)cc1OC` came in with a melting point of 139 to 140 °C.

As for `CCn1ccc(=O)c(O)c1C`, the melting point lay within 204 to 205 °C.

The compound `Cc1nccnc1C(=O)Nc1ccc(C(C(F)(F)F)C(F)(F)F)c(CC(C)C)c1` yielded a melting point of 133 to 134 °C.

`Cc1nc(S(=O)(=O)N(C(=O)c2ccccc2)c2c(F)cccc2F)nn1-c1ncccn1` showed a melting point of 218 to 221 °C.

As to `CCCC(=O)OCCOc1ccc2oc3cc(-c4nnn[nH]4)ccc3c(=O)c2c1`, the melting point was in the range of 207 to 209 °C.

Consider `Cc1nn(C2CCCC2C)c(N)c1C#N` (stereo not drawn), for which the melting point fell in the range of 158 to 159 °C.

Compound `CN(C)C=Nc1ccc(-c2c[nH]cn2)cc1` had a melting point of 141 to 142 °C.

In turn, `N#Cc1ncc(-c2ccccc2)nc1Cl` gave a melting point of 143 to 145 °C.

The compound `N#Cc1cnc2cc(F)c(O)cc2c1Cl` had a melting point of more than 250 °C.

In turn, `CN(c1cccc2cc(-c3ncc(CCC(=O)O)s3)[nH]c12)S(=O)(=O)c1cccs1` displayed a melting point of 234 to 235 °C.

Turning to `Cn1c(-c2cccc(Cl)c2)cc(-c2cccc(Cl)c2)nc1=O`, the melting point fell in the range of 178 to 181 °C.

Compound `O=C(NC1CCCCC1)OCc1ccccc1[N+](=O)[O-]` displayed a melting point of 101 to 102 °C.

On to `Oc1c2c(nn1-c1ccccn1)CCCc1ccccc1-2`, for which the melting point lay within 80 to 81 °C.

As for `COc1cc(CNC(=O)c2nc3sccc3c(=O)[nH]2)ccc1Br`, the melting point lay in the range of 196 to 198 °C.

Turning to `Cc1sc(C(=O)O)cc1CC#N`, the melting point is 196 to 198 °C.

Take `C1=C(c2c[nH]c3ccccc23)CCN(CC2COc3ccc4c(c3O2)CCCO4)C1` (stereo not drawn): the melting point is 186 to 187 °C.

On to `COc1ccccc1CNC(=O)c1ccc2nc(NCc3ccccc3OC)ccc2c1`, for which the melting point stood at 108 °C.

In turn, `CCOC(=O)c1cn(-c2cc(OC)c(F)cc2F)c2c(C)c(N)c(F)cc2c1=O` yielded a melting point of 232 to 235 °C.

Regarding `COc1ccc(C(=O)c2ccccc2N)cc1`, the melting point lay within 76 to 77 °C.

Turning to `N#CC1=C(c2ccc3ccccc3c2)Nc2n[nH]cc2C1c1cccc2nonc12` (stereo not drawn), the melting point came out at 228 °C.

Take `CCN(CC)CC1CCCN(CC(=O)N2c3ccccc3C(=O)Nc3cccnc32)C1` (stereo not drawn): the melting point fell in the range of 199 to 200 °C.

`CNC(=O)c1cc(-c2ccc(SC)cc2)nn(CC(C)C)c1=O`: the melting point lay within 130 to 131 °C.

With `Cc1sc(N)nc1-c1ccc(CCN2CCN(c3cccc(C(F)(F)F)c3)CC2)cc1`, the melting point is 110 to 115 °C.

In turn, `COc1cn(-c2ccc(N3CCCC(F)(F)C3)cc2F)nc(-c2ccnn2-c2ccccc2)c1=O` showed a melting point of 182 to 187 °C.

For `CCOc1ccc(-c2ccc3c(c2)C=C(C(=O)Nc2ccc(CN(C)C4CCOCC4)cc2)CCS3(=O)=O)cc1F`, the melting point fell in the range of 233 to 235 °C.

With `O=c1[nH]c2cc(Cl)cc(Cl)c2c(=O)n1Cc1cccc(F)c1`, the melting point is 267 to 270 °C.

The compound `O=C(Nc1nc(-c2ccco2)c(C(=O)C2CCSCC2)s1)c1ccncc1` had a melting point of 203 to 210 °C.

`O=C(O)CCc1cn(Cc2ccc(OCc3ccc(-c4ccccc4)cn3)cc2)nc1-c1ccc(F)cc1` gave a melting point of 162 to 163 °C.

Compound `CC(C)(C)OC(=O)Nc1ccncc1C(=O)O` gave a melting point of 260 °C.

Regarding `O=C1c2sccc2-n2cncc2[C@@H]2CCCN12`, the melting point fell in the range of 228 to 230 °C.

`CCC(CC)Nc1cc(C)nc(Oc2c(C)cc(C)cc2C)c1N` came in with a melting point of 105 to 107 °C.

The compound `CCOCCOc1ccc(-c2ccc3c(c2)C=C(C(=O)OC)CCN3)cc1` showed a melting point of 102 to 108 °C.

The compound `O=C(c1ccccc1)N1CCC2OC2C1` (stereo not drawn) showed a melting point of 212 to 213 °C.

In turn, `CN(C)c1c(-c2ccccc2)sc2ccc(Cl)cc12` displayed a melting point of 79 to 81 °C.

`CCCN1CCCC1CNC(=O)c1cc(S(N)(=O)=O)cc2c1OC(C)C2` (stereo not drawn) came in with a melting point of 177 to 180 °C.

Turning to `CC(C)n1nc(-c2nc(C3=CCCN(C)C3)c(N)nc2-c2ccccc2)ccc1=O`, the melting point lay in the range of 191 to 193 °C.

`N#Cc1cnc(Nc2ccc(OCCn3cncn3)cc2)nc1-c1ccccc1`: the melting point was 105 °C.

The term melting point denotes the temperature, or range, at which the solid turns liquid.
